From US10251395B2, “Substituted furano-/thienocycloalkylamino-2-pyrimidine derivatives and use thereof for controlling undesired plant growth” (Bayer CropScience Aktiengesellschaft, priority 2015, dated 2019)

Columns and labels:
Type in all cases: in vivo
[1] = system: Polygonum convolvulus; assay: Pre-emergence herbicidal effect; conditions: scored visually after 3 weeks
Description: (§1) Seeds of monocotyledonous and dicotyledonous weed plants and crop plants are laid out in wood-fiber pots in sandy loam and covered with soil. The compounds of the invention, formulated in the form of wettable powders (WP) or as emulsion concentrates (EC), are then applied to the surface of the covering soil as aqueous suspension or emulsion at a water application rate equating to 600 to 800 L/ha with addition of 0.2% wetting agent.
(§2) After the treatment, the pots are placed in a greenhouse and kept under good growth conditions for the trial plants. The damage to the test plants is scored visually after a test period of 3 weeks by comparison with untreated controls (herbicidal activity in percent (%): 100% activity=the plants have died, 0% activity=like control plants).
(§3) • ABUTH: Abutilon theophrasti ALOMY: Alopecurus myosuroides • AMARE: Amaranthus retroflexus AVEFA: Avena fatua • CYPES: Cyperus esculentus ECHCG: Echinochloa crus-galli • LOLMU: Lolium multiflorum MATIN: Matricaria inodora • PHBPU: Ipomoea purpurea POLCO: Polygonum convolvulus • SETVI: Setaria viridis STEME: Stellaria media • VERPE: Veronica persica VIOTR: Viola tricolor

[2] = system: Abutilon theophrasti; assay: Pre-emergence herbicidal effect; conditions: scored visually after 3 weeks
Description: as §1, §2, §3

[3] = system: Stellaria media; assay: Pre-emergence herbicidal effect; conditions: scored visually after 3 weeks
Description: as §1, §2, §3

[4] = system: Amaranthus retroflexus; assay: Pre-emergence herbicidal effect; conditions: scored visually after 3 weeks
Description: as §1, §2, §3

[5] = system: Viola tricolor; assay: Pre-emergence herbicidal effect; conditions: scored visually after 3 weeks
Description: as §1, §2, §3

[6] = system: Echinochloa crus-galli; assay: Pre-emergence herbicidal effect; conditions: scored visually after 3 weeks
Description: as §1, §2, §3

[7] = system: Veronica persica; assay: Pre-emergence herbicidal effect; conditions: scored visually after 3 weeks
Description: as §1, §2, §3

[8] = system: Matricaria inodora; assay: Pre-emergence herbicidal effect; conditions: scored visually after 3 weeks
Description: as §1, §2, §3

[9] = system: Setaria viridis; assay: Pre-emergence herbicidal effect; conditions: scored visually after 3 weeks
Description: as §1, §2, §3

[10] = system: Abutilon theophrasti; assay: Post-emergence herbicidal effect; conditions: assessed visually after about 3 weeks vs untreated controls
Description: (§4) • ABUTH: Abutilon theophrasti ALOMY: Alopecurus myosuroides • AMARE: Amaranthus retroflexus AVEFA: Avena fatua • CYPES: Cyperus esculentus ECHCG: Echinochloa crus-galli • LOLMU: Lolium multiflorum MATIN: Matricaria inodora • PHBPU: Ipomoea purpurea POLCO: Polygonum convolvulus • SETVI: Setaria viridis STEME: Stellaria media • VERPE: Veronica persica VIOTR: Viola tricolor Seeds of monocotyledonous and dicotyledonous weed and crop plants are laid out in sandy loam in wood-fiber pots, covered with soil and cultivated in a greenhouse under good growth conditions. 2 to 3 weeks after sowing, the test plants are treated at the one-leaf stage. The compounds of the invention, formulated in the form of wettable powders (WP) or as emulsion concentrates (EC), are then sprayed onto the green parts of the plants as aqueous suspension or emulsion at a water application rate equating to 600 to 800 L/ha with addition of 0.2% wetting agent. After the test plants have been left to stand in the greenhouse under optimal growth conditions for about 3 weeks, the action of the preparations is assessed visually in comparison to untreated controls (herbicidal action in percent (%): 100% activity=the plants have died, 0% activity=like control plants).

[11] = system: Stellaria media; assay: Post-emergence herbicidal effect; conditions: assessed visually after about 3 weeks vs untreated controls
Description: as §4

[12] = system: Amaranthus retroflexus; assay: Post-emergence herbicidal effect; conditions: assessed visually after about 3 weeks vs untreated controls
Description: as §4

[13] = system: Viola tricolor; assay: Post-emergence herbicidal effect; conditions: assessed visually after about 3 weeks vs untreated controls
Description: as §4

[14] = system: Echinochloa crus-galli; assay: Post-emergence herbicidal effect; conditions: 320 g/ha, assessed visually after about 3 weeks vs untreated controls
Description: as §4

[15] = system: Veronica persica; assay: Post-emergence herbicidal effect; conditions: assessed visually after about 3 weeks vs untreated controls
Description: as §4

[16] = system: Ipomoea purpurea; assay: Post-emergence herbicidal effect; conditions: 320 g/ha, assessed visually after about 3 weeks vs untreated controls
Description: as §4

[17] = system: Lolium multiflorum; assay: Pre-emergence herbicidal effect; conditions: Dosage 320 g/ha, scored visually after 3 weeks
Description: as §1, §2, §3

[18] = system: Alopecurus myosuroides; assay: Pre-emergence herbicidal effect; conditions: Dosage 320 g/ha, scored visually after 3 weeks
Description: as §1, §2, §3

[19] = system: Matricaria inodora; assay: Post-emergence herbicidal effect; conditions: assessed visually after about 3 weeks vs untreated controls
Description: as §4

[20] = system: Setaria viridis; assay: Post-emergence herbicidal effect; conditions: assessed visually after about 3 weeks vs untreated controls
Description: as §4

| SMILES | POLCO pre-emergence efficacy (herbicidal activity) ([1]; Dosage 80 g/ha) [%] | POLCO pre-emergence efficacy (herbicidal activity) ([1]; Dosage 320 g/ha) [%] | STEME pre-emergence efficacy (herbicidal activity) ([3]; Dosage 80 g/ha) [%] | STEME pre-emergence efficacy (herbicidal activity) ([3]; Dosage 320 g/ha) [%] | AMARE pre-emergence efficacy (herbicidal activity) ([4]; Dosage 320 g/ha) [%] | VIOTR pre-emergence efficacy (herbicidal activity) ([5]; Dosage 80 g/ha) [%] | VIOTR pre-emergence efficacy (herbicidal activity) ([5]; Dosage 320 g/ha) [%] | ECHCG pre-emergence efficacy (herbicidal activity) ([6]; Dosage 320 g/ha) [%] | VERPE pre-emergence efficacy (herbicidal activity) ([7]; Dosage 80 g/ha) [%] | VERPE pre-emergence efficacy (herbicidal activity) ([7]; Dosage 320 g/ha) [%] | MATIN pre-emergence efficacy (herbicidal activity) ([8]; Dosage 80 g/ha) [%] | MATIN pre-emergence efficacy (herbicidal activity) ([8]; Dosage 320 g/ha) [%] | SETVI pre-emergence efficacy (herbicidal activity) ([9]; Dosage 80 g/ha) [%] | SETVI pre-emergence efficacy (herbicidal activity) ([9]; Dosage 320 g/ha) [%] | post-emergence efficacy ABUTH ([10]; 320 g/ha) [%] | post-emergence efficacy AMARE ([12]; 320 g/ha) [%] | post-emergence efficacy VIOTR ([13]; 320 g/ha) [%] | post-emergence efficacy VERPE ([15]; 320 g/ha) [%] | post-emergence efficacy VIOTR ([13]; 80 g/ha) [%] | post-emergence efficacy AMARE ([12]; 80 g/ha) [%] | other results |
| --- | --- | --- | --- | --- | --- | --- | --- | --- | --- | --- | --- | --- | --- | --- | --- | --- | --- | --- | --- | --- | --- |
| Cc1cc2c(s1)CCCC2Nc1nc(N)c(S(C)(=O)=O)c(Cl)n1 (racemic) [compound 16] | 20 | 40 | 100 | 100 | 100 | 100 | 100 | 100 | 100 | 100 | 100 | 100 | 20 | 100 | 90 | 90 | 90 | 80 |  |  | ABUTH pre-emergence efficacy (herbicidal activity) ([2]; Dosage 80 g/ha): 40%; ABUTH pre-emergence efficacy (herbicidal activity) ([2]; Dosage 320 g/ha): 40%; AMARE pre-emergence efficacy (herbicidal activity) ([4]; Dosage 80 g/ha): 90%; ECHCG pre-emergence efficacy (herbicidal activity) ([6]; Dosage 80 g/ha): 100%; post-emergence efficacy STEME ([11]; 320 g/ha): 90%; post-emergence efficacy ECHCG [14]: 100% |
| Cc1cc2c(s1)CCCC2Nc1nc(N)c([S+](C)[O-])c(Cl)n1 (racemic) [compound 39] | 80 | 90 | 100 | 100 | 100 | 100 | 100 | 100 |  | 100 | 100 | 100 | 100 | 100 |  |  | 80 |  | 80 |  | ABUTH pre-emergence efficacy (herbicidal activity) ([2]; Dosage 320 g/ha): 80%; ECHCG pre-emergence efficacy (herbicidal activity) ([6]; Dosage 80 g/ha): 80%; post-emergence efficacy PHBPU [16]: 80% |
| Nc1nc(NC2CCCc3sccc32)ncc1C(F)(F)F (racemic) [compound 70] |  | 100 | 100 | 100 | 100 | 100 | 100 | 100 | 90 | 100 | 100 | 100 | 100 | 100 |  | 100 | 100 |  |  | 40 | AMARE pre-emergence efficacy (herbicidal activity) ([4]; Dosage 80 g/ha): 100%; LOLMU pre-emergence efficacy (herbicidal activity) [17]: 100%; post-emergence efficacy STEME ([11]; 80 g/ha): 100%; post-emergence efficacy STEME ([11]; 320 g/ha): 100%; post-emergence efficacy ECHCG [14]: 80% |
| Cc1cc2c(s1)CCCC2Nc1ncc(C(N)=O)c(N)n1 (racemic) [compound 267] |  |  | 100 | 100 | 100 | 90 | 100 | 90 | 100 | 100 |  |  | 80 | 80 | 80 | 80 | 90 | 80 | 80 | 80 | ALOMY pre-emergence efficacy (herbicidal activity) [18]: 80%; AMARE pre-emergence efficacy (herbicidal activity) ([4]; Dosage 80 g/ha): 100%; post-emergence efficacy ABUTH ([10]; 80 g/ha): 80%; post-emergence efficacy STEME ([11]; 80 g/ha): 80%; post-emergence efficacy STEME ([11]; 320 g/ha): 100%; post-emergence efficacy PHBPU [16]: 80%; post-emergence efficacy VERPE ([15]; 80 g/ha): 80%; post-emergence efficacy MATIN ([19]; 80 g/ha): 80%; post-emergence efficacy MATIN ([19]; 320 g/ha): 80%; post-emergence efficacy SETVI ([20]; 320 g/ha): 60% |
| Cc1cc2c(s1)CCCC2Nc1ncc(-c2cncc(C(F)(F)F)c2)c(N)n1 (racemic) [compound 290] | 50 | 80 | 100 | 100 | 100 | 100 | 100 | 100 | 100 | 100 | 90 | 100 | 60 | 100 | 60 | 80 | 90 | 100 | 60 | 80 | ALOMY pre-emergence efficacy (herbicidal activity) [18]: 80%; LOLMU pre-emergence efficacy (herbicidal activity) [17]: 100%; post-emergence efficacy ABUTH ([10]; 80 g/ha): 60%; post-emergence efficacy MATIN ([19]; 80 g/ha): 80%; post-emergence efficacy MATIN ([19]; 320 g/ha): 90%; post-emergence efficacy SETVI ([20]; 320 g/ha): 60% |
| Cc1cc2c(s1)CCCC2Nc1ncc(-c2ccccc2)c(N)n1 (racemic) [compound 296] |  |  |  | 90 |  | 60 | 100 |  | 100 | 100 | 90 | 100 | 70 | 100 | 70 | 90 | 80 | 90 | 70 | 60 | post-emergence efficacy MATIN ([19]; 320 g/ha): 60%; post-emergence efficacy SETVI ([20]; 80 g/ha): 40%; post-emergence efficacy SETVI ([20]; 320 g/ha): 70% |
